From patent US20170119833A1, “ACANTHOSPERMUM HISPIDUM COMPOSITION FOR THE TREATMENT OF CANCER AND METHODS FOR ITS MANUFACTURE” (priority 2014, published 2017)

Assays:
Format in all cases: in vivo, Swiss albino mice
DAL [1] = assay: Dead cell count of DAL ascitic fluid in mice
Method: (§1) The extracts used were in the form of suspension with tween-20 (one part by volume) and distilled water (two parts by volume). The prepared extracts were also used for further studies. Animals used for studies were Swiss albino mice. Six experiments were carried for each plant extract.
(§2) After development of tumor the drug treatment was given on the 9th day and the 18th day post tumor inoculation. The peritoneal fluid was collected once on the 11th day and 20th day from each mouse and the following parameters were examined in antitumor assessment:
Ascitic fluid for cell cytology, specifically dead cell count and histopathology.
(§3) Statistical analysis: The data for anti-tumor activity was analyzed by one-way ANOVA followed by Dunnett's ‘t’ test. P<0.05 was considered statistically significant.

DAL [2] = assay: Mean survival time (MST) in DAL-bearing mice
Method: as §1, §2
Mean Survival time (MST);
as §3

DAL [3] = assay: Hematological parameters in DAL-bearing mice; conditions: 5-FU 12.5 mg/kg p.o., extracts 300 mg/kg p.o.
Method: The extracts used were in the form of suspension with tween-20 (one part by volume) and distilled water (two parts by volume). The prepared extracts were also used for further studies. Animals used for studies were Swiss albino mice. Six experiments were carried for each plant extract. After development of tumor the drug treatment was given on the 9th day and the 18th day post tumor inoculation. […] Hematological parameters, such as WBC, RBC, Hb, differential Leucocyte count; Statistical analysis: The data for anti-tumor activity was analyzed by one-way ANOVA followed by Dunnett's ‘t’ test. P<0.05 was considered statistically significant.

DAL [4] = assay: Body weight (tumor volume) of DAL-bearing mice; conditions: for body weight: mean of six experiments
Method: as §1, §2
Body weight (tumor volume). All parameters were examined with standard procedures.

In the case of O=c1[nH]cc(F)c(=O)[nH]1 [5-FU, 5-Fluorouracil], the “% of dead cells” value (DAL [1]; 11th day) is reported as 35%, the “% protection against tumor” value (DAL [1]; 11th day) is reported as 52% and the “% of dead cells” value (DAL [1]; 20th day) is reported as 51%. The “% protection against tumor” value (DAL [1]; 20th day) was 54.54%, the “No. of Days Alive ± SEM” value (DAL [2]; DAL-bearing mice) was 26 ± 0.24 days and the “Mean Survival time (%)” value (DAL [2]; tumor control (DAL) = 100) was 110%. The “Hb g/dl ± SEM” value (DAL [3]; Day 11) was 5.8 ± 0.98 g/dL, the “Lymphocytes ± SEM” value (DAL [3]; Day 11) was 48 ± 0.41 and the Monocytes (DAL [3]; Day 11) was 2. For the same compound, the “Neutrophils ± SEM” value (DAL [3]; Day 11) was 56 ± 0.82, the “RBC × 10^6 ± SEM” value (DAL [3]; Day 11) was 2.20 ± 0.08 × 10^6 and the “Hb g/dl ± SEM” value (DAL [3]; Day 20) was 7.2 ± 0.04 g/dL. The “Lymphocytes ± SEM” value (DAL [3]; Day 20) was 54.98 ± 0.81, the Monocytes (DAL [3]; Day 20) was 2 and the “Neutrophils ± SEM” value (DAL [3]; Day 20) was 34.98 ± 0.03. The “RBC × 10^6 ± SEM” value (DAL [3]; Day 20) was 2.61 ± 0.03 × 10^6, the “WBC ± SEM” value (DAL [3]; Day 20) was 11,600 ± 2.03 and the “% increase in body weight on 20th day post-tumor inoculation” value (DAL [4]; 20th day post-tumor inoculation) was 32.08%. For the same compound, the body weight (DAL [4]; day 9 post tumor inoculation) was 22.33 grams, the body weight (DAL [4]; day 10 post tumor inoculation) was 22.33 grams and the body weight (DAL [4]; day 11 post tumor inoculation) was 22.66 grams. The body weight (DAL [4]; day 12 post tumor inoculation) was 23 grams, the body weight (DAL [4]; day 13 post tumor inoculation) was 26.33 grams and the body weight (DAL [4]; day 14 post tumor inoculation) was 27 grams. The body weight (DAL [4]; day 15 post tumor inoculation) was 28.66 grams, the body weight (DAL [4]; day 18 post tumor inoculation) was 30 grams and the body weight (DAL [4]; day 20 post tumor inoculation) was 30 grams. For the same compound, the body weight (DAL [4]; day 21 post tumor inoculation) was 30 grams and the body weight (DAL [4]; day 24 post tumor inoculation) was 30 grams.
